Inconclusive results and toxic doses are left out. How the source made its calls: active means survival T/C of 150% or more; inactive means T/C below 125% in these data.
System: CD2F1 mice, L1210 leukemia ip, survival T/C
Assay: NCI In Vivo Anticancer Drug Screen. Data for tumor model L1210 Leukemia (intraperitoneal) in CD2F1 (CDF1) mice
Conditions: higher = longer survival
In short: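 Activity against a transplanted murine tumor was judged by comparing the compound group with a vehicle group. The outcome in the treated animals was divided by that in the controls.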

Measured: T/C

Clc1ccc(C#Cc2ccc(Cl)cc2)cc1
inactive: endpoint: mean survival time, dose: 75.0 mg/kg/injection, schedule: Q01DX001 (ip), vehicle: other 103 % of control | endpoint: mean survival time, dose: 100.0 mg/kg/injection, schedule: Q04DX003 (ip), vehicle: saline with Tween-80 100 % of control | endpoint: mean survival time, dose: 150.0 mg/kg/injection, schedule: Q01DX001 (ip), vehicle: other 94 % of control | endpoint: mean survival time, dose: 300.0 mg/kg/injection, schedule: Q01DX001 (ip), vehicle: other 88 % of control | endpoint: mean survival time, dose: 400.0 mg/kg/injection, schedule: Q04DX003 (ip), vehicle: saline with Tween-80 87 % of control

CC(C)(O)C#Cc1ccccc1
inactive: endpoint: mean survival time, dose: 100.0 mg/kg/injection, schedule: Q01DX009 (ip), vehicle: saline with Tween-80 98 % of control | endpoint: mean survival time, dose: 200.0 mg/kg/injection, schedule: Q01DX009 (ip), vehicle: saline with Tween-80 98 % of control | endpoint: mean survival time, dose: 400.0 mg/kg/injection, schedule: Q01DX009 (ip), vehicle: saline with Tween-80 96 % of control

O=C(O)CS(=O)c1ccc(Cl)cc1 (stereo not given)
inactive: endpoint: mean survival time, dose: 50.0 mg/kg/injection, schedule: Q01DX001 (ip), vehicle: saline with Tween-80 104 % of control | endpoint: mean survival time, dose: 100.0 mg/kg/injection, schedule: Q01DX001 (ip), vehicle: saline with Tween-80 95 % of control | endpoint: mean survival time, dose: 200.0 mg/kg/injection, schedule: Q01DX001 (ip), vehicle: saline with Tween-80 88 % of control

N#CCCN(C(=S)Nc1cccc(C(F)(F)F)c1)C1CCCCC1
inactive: endpoint: mean survival time, dose: 12.5 mg/kg/injection, schedule: Q01DX009 (ip), vehicle: Klucel (hydroxypropylcellulose) (HPC) 92 % of control | endpoint: mean survival time, dose: 25.0 mg/kg/injection, schedule: Q01DX009 (ip), vehicle: Klucel (hydroxypropylcellulose) (HPC) 97 % of control | endpoint: mean survival time, dose: 50.0 mg/kg/injection, schedule: Q01DX009 (ip), vehicle: Klucel (hydroxypropylcellulose) (HPC) 98 % of control | endpoint: mean survival time, dose: 100.0 mg/kg/injection, schedule: Q01DX009 (ip), vehicle: Klucel (hydroxypropylcellulose) (HPC) 98 % of control | endpoint: mean survival time, dose: 200.0 mg/kg/injection, schedule: Q01DX009 (ip), vehicle: Klucel (hydroxypropylcellulose) (HPC) 98 % of control | endpoint: mean survival time, dose: 400.0 mg/kg/injection, schedule: Q01DX009 (ip), vehicle: Klucel (hydroxypropylcellulose) (HPC) 101 % of control | endpoint: median survival time, dose: 100.0 mg/kg/injection, schedule: Q01DX009 (ip), vehicle: Klucel (hydroxypropylcellulose) (HPC) 101 % of control | endpoint: median survival time, dose: 200.0 mg/kg/injection, schedule: Q01DX009 (ip), vehicle: Klucel (hydroxypropylcellulose) (HPC) 103 % of control | endpoint: median survival time, dose: 400.0 mg/kg/injection, schedule: Q01DX009 (ip), vehicle: Klucel (hydroxypropylcellulose) (HPC) 104 % of control
